# Test results reported in PubChem BioAssay AID1963438 (Molecular Pharmacology Branch, DTP, NCI, 2024).
# Several values for one entry are separate records, joined by “and”; a condition that tells them apart may be missing. Equal values may be shown once.
# Tested on: NCI-H510 multicellular tumor spheroid growth, % test/control
# Assay: Anticancer human tumor NCI-H510 cell line growth inhibition [Asc];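 note: spheroids exposed to agents for 7 days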;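 for viability, T/C: 100% = DMSO vehicle control wells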
# Conditions: for viability, T/C: stronger effect = lower value
# Outline: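 Tumor cells were grown as complex spheroids with human endothelial cells (HUVEC) and human mesenchymal stem cells as stroma. Agents were tested alone and in combination, in half-log steps down from the clinical Cmax, or from 10 microM where Cmax was unknown.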
# [1] = curve of first compound, second compound 0.1 µM
# [2] = curve of first compound, second compound 0.316 µM
# [3] = curve of first compound, second compound 1 µM
# [4] = curve of first compound, second compound 3.16 µM
# [5] = curve of first compound, second compound 10 µM
# [6] = second compound 0.1 µM, first compound 0.0316 µM
# [7] = second compound 0.1 µM, first compound 0.1 µM
# [8] = second compound 0.1 µM, first compound 0.316 µM
# [9] = second compound 0.1 µM, first compound 1 µM
# [10] = second compound 0.316 µM, first compound 0.0316 µM
# [11] = second compound 0.316 µM, first compound 0.1 µM
# [12] = second compound 0.316 µM, first compound 0.316 µM
# [13] = second compound 0.316 µM, first compound 1 µM
# [14] = second compound 1 µM, first compound 0.0316 µM
# [15] = second compound 1 µM, first compound 0.1 µM
# [16] = second compound 1 µM, first compound 0.316 µM
# [17] = second compound 1 µM, first compound 1 µM
# [18] = second compound 3.16 µM, first compound 0.0316 µM
# [19] = second compound 3.16 µM, first compound 0.1 µM
# [20] = second compound 3.16 µM, first compound 0.316 µM
# [21] = second compound 3.16 µM, first compound 1 µM
# [22] = second compound 10 µM, first compound 0.0316 µM
# [23] = second compound 10 µM, first compound 0.1 µM
# [24] = second compound 10 µM, first compound 0.316 µM
# [25] = second compound 10 µM, first compound 1 µM
smiles,measurement,setting,value
C=CC(=O)N1CCN(c2nc(=O)n(-c3c(C)ccnc3C(C)C)c3nc(-c4c(O)cccc4F)c(F)cc23)C(C)C1 (centres undefined) + Cc1c(S(C)(=O)=O)c(-c2cc(F)cc(N3CCN(c4ccc(NS(=O)(=O)c5ccc(NC(CCN6CCC(C(=O)OCCCP(=O)(O)O)CC6)CSc6ccccc6)c(S(=O)(=O)C(F)(F)F)c5)cc4)CC3)c2)c(-c2ccc(Cl)cc2)n1C(C)C,IC50,[1],> 10000 nM
same,IC50,[2],> 10000 nM
same,IC50,[3],> 10000 nM
same,IC50,[4],> 10000 nM
same,IC50,[5],> 10000 nM
same,"viability, T/C",[6],102%
same,"viability, T/C",[7],110%
same,"viability, T/C",[8],124%
same,"viability, T/C",[9],94.7%
same,"viability, T/C","second compound 0.1 µM, first compound 3.16 µM",86.3%
same,"viability, T/C","second compound 0.1 µM, first compound 10 µM",98.4%
same,"viability, T/C",[10],106%
same,"viability, T/C",[11],103%
same,"viability, T/C",[12],115%
same,"viability, T/C",[13],103%
same,"viability, T/C","second compound 0.316 µM, first compound 3.16 µM",109%
same,"viability, T/C","second compound 0.316 µM, first compound 10 µM",86%
same,"viability, T/C",[14],85.6%
same,"viability, T/C",[15],89.5%
same,"viability, T/C",[16],115%
same,"viability, T/C",[17],121%
same,"viability, T/C","second compound 1 µM, first compound 3.16 µM",98.1%
same,"viability, T/C","second compound 1 µM, first compound 10 µM",79.3%
same,"viability, T/C",[18],80%
same,"viability, T/C",[19],100%
same,"viability, T/C",[20],117%
same,"viability, T/C",[21],118%
same,"viability, T/C","second compound 3.16 µM, first compound 3.16 µM",79.7%
same,"viability, T/C","second compound 3.16 µM, first compound 10 µM",108%
same,"viability, T/C",[22],102%
same,"viability, T/C",[23],106%
same,"viability, T/C",[24],97.8%
same,"viability, T/C",[25],100%
same,"viability, T/C","second compound 10 µM, first compound 3.16 µM",89.4%
same,"viability, T/C","second compound 10 µM, first compound 10 µM",81.9%
NC(=O)C(=Cn1cnc(-c2cc(C(F)(F)F)cc(C(F)(F)F)c2)n1)c1cncnc1,"viability, T/C",compound 0.000949 µM,91.3% and 79.1% and 81.8%
same,"viability, T/C",compound 0.003 µM,95.1% and 92.5% and 90.3%
same,"viability, T/C",compound 0.00949 µM,97.5% and 68.2% and 97.9%
same,"viability, T/C",compound 0.03 µM,87.7% and 81.1% and 98%
same,"viability, T/C",compound 0.0949 µM,76% and 44% and 86.5%
same,"viability, T/C",compound 0.3 µM,14.6% and 47% and 69.7%
same,IC50,curve of compound,154 nM and 81.7 nM and > 300 nM
CCN1C(C(=O)NC23CCC(C(=O)O)(CC2)CC3)C(c2cccc(Cl)c2F)C2(C(=O)Nc3cc(Cl)ccc32)C12CCCCC2 (centres undefined) + CNC(C)C(=O)NC1CN(S(=O)(=O)c2cccc(S(=O)(=O)N3CCC4CCC(C(=O)NC(c5ccccc5)c5ccccc5)N4C(=O)C(NC(=O)C(C)NC)C3)c2)CCC2CCC(C(=O)NC(c3ccccc3)c3ccccc3)N2C1=O,IC50,"curve of first compound, second compound 0.01 µM",> 3000 nM
same,IC50,"curve of first compound, second compound 0.0316 µM",> 3000 nM
same,IC50,[1],> 3000 nM
same,IC50,[2],> 3000 nM
same,IC50,[3],> 3000 nM
same,"viability, T/C","second compound 0.01 µM, first compound 0.00949 µM",130%
same,"viability, T/C","second compound 0.01 µM, first compound 0.03 µM",104%
same,"viability, T/C","second compound 0.01 µM, first compound 0.0949 µM",101%
same,"viability, T/C","second compound 0.01 µM, first compound 0.3 µM",96.7%
same,"viability, T/C","second compound 0.01 µM, first compound 0.949 µM",108%
same,"viability, T/C","second compound 0.01 µM, first compound 3 µM",104%
same,"viability, T/C","second compound 0.0316 µM, first compound 0.00949 µM",108%
same,"viability, T/C","second compound 0.0316 µM, first compound 0.03 µM",98.3%
same,"viability, T/C","second compound 0.0316 µM, first compound 0.0949 µM",97.8%
same,"viability, T/C","second compound 0.0316 µM, first compound 0.3 µM",117%
same,"viability, T/C","second compound 0.0316 µM, first compound 0.949 µM",131%
same,"viability, T/C","second compound 0.0316 µM, first compound 3 µM",90.9%
same,"viability, T/C","second compound 0.1 µM, first compound 0.00949 µM",108%
same,"viability, T/C","second compound 0.1 µM, first compound 0.03 µM",113%
same,"viability, T/C","second compound 0.1 µM, first compound 0.0949 µM",106%
same,"viability, T/C","second compound 0.1 µM, first compound 0.3 µM",101%
same,"viability, T/C","second compound 0.1 µM, first compound 0.949 µM",93.5%
same,"viability, T/C","second compound 0.1 µM, first compound 3 µM",121%
same,"viability, T/C","second compound 0.316 µM, first compound 0.00949 µM",95.3%
same,"viability, T/C","second compound 0.316 µM, first compound 0.03 µM",117%
same,"viability, T/C","second compound 0.316 µM, first compound 0.0949 µM",95.5%
same,"viability, T/C","second compound 0.316 µM, first compound 0.3 µM",109%
same,"viability, T/C","second compound 0.316 µM, first compound 0.949 µM",92.9%
same,"viability, T/C","second compound 0.316 µM, first compound 3 µM",107%
same,"viability, T/C","second compound 1 µM, first compound 0.00949 µM",96.6%
same,"viability, T/C","second compound 1 µM, first compound 0.03 µM",97.1%
same,"viability, T/C","second compound 1 µM, first compound 0.0949 µM",94.8%
same,"viability, T/C","second compound 1 µM, first compound 0.3 µM",99.2%
same,"viability, T/C","second compound 1 µM, first compound 0.949 µM",97.8%
same,"viability, T/C","second compound 1 µM, first compound 3 µM",115%
COc1c(OCCCN2CCOCC2)ccc2c3n(c(=NC(=O)c4cnc(N)nc4)nc12)CCN3,"viability, T/C",compound 0.00316 µM,114% and 91.5% and 87.9%
same,"viability, T/C",compound 0.01 µM,97.9% and 112% and 97.6%
same,"viability, T/C",compound 0.0316 µM,93.2% and 99.9% and 112%
same,"viability, T/C",compound 0.1 µM,93.2% and 52.7% and 108%
same,"viability, T/C",compound 0.316 µM,110% and 89.6% and 115%
same,"viability, T/C",compound 1 µM,81.5% and 92.5% and 114%
same,IC50,curve of compound,> 1000 nM
O=C(c1ccc(F)c(F)c1Nc1ccc(I)cc1F)N1CC(O)([C@@H]2CCCCN2)C1 + Cc1c(S(C)(=O)=O)c(-c2cc(F)cc(N3CCN(c4ccc(NS(=O)(=O)c5ccc(NC(CCN6CCC(C(=O)OCCCP(=O)(O)O)CC6)CSc6ccccc6)c(S(=O)(=O)C(F)(F)F)c5)cc4)CC3)c2)c(-c2ccc(Cl)cc2)n1C(C)C,IC50,[1],> 1000 nM
same,IC50,[2],> 1000 nM
same,IC50,[3],> 1000 nM
same,IC50,[4],> 1000 nM
same,IC50,[5],> 1000 nM
same,"viability, T/C","second compound 0.1 µM, first compound 0.00316 µM",113%
same,"viability, T/C","second compound 0.1 µM, first compound 0.01 µM",107%
same,"viability, T/C",[6],115%
same,"viability, T/C",[7],96.9%
same,"viability, T/C",[8],90%
same,"viability, T/C",[9],87.4%
same,"viability, T/C","second compound 0.316 µM, first compound 0.00316 µM",124%
same,"viability, T/C","second compound 0.316 µM, first compound 0.01 µM",104%
same,"viability, T/C",[10],113%
same,"viability, T/C",[11],88.7%
same,"viability, T/C",[12],58.7%
same,"viability, T/C",[13],83%
same,"viability, T/C","second compound 1 µM, first compound 0.00316 µM",99.7%
same,"viability, T/C","second compound 1 µM, first compound 0.01 µM",115%
same,"viability, T/C",[14],126%
same,"viability, T/C",[15],89.8%
same,"viability, T/C",[16],86.9%
same,"viability, T/C",[17],91.7%
same,"viability, T/C","second compound 3.16 µM, first compound 0.00316 µM",107%
same,"viability, T/C","second compound 3.16 µM, first compound 0.01 µM",88.1%
same,"viability, T/C",[18],108%
same,"viability, T/C",[19],104%
same,"viability, T/C",[20],81.3%
same,"viability, T/C",[21],81.4%
same,"viability, T/C","second compound 10 µM, first compound 0.00316 µM",74.7%
same,"viability, T/C","second compound 10 µM, first compound 0.01 µM",105%
same,"viability, T/C",[22],96.1%
same,"viability, T/C",[23],105%
same,"viability, T/C",[24],78.3%
same,"viability, T/C",[25],64.3%
